# Assays:
# Format in all cases: in vivo
# Spodoptera frugiperda [1] = experiment: Spodoptera frugiperda spray test, maize leaf discs; details: application rate 100 g/ha, after 7 days, caterpillars
# Procedure: Spodoptera frugiperda—Spray Test [table] To produce a suitable active ingredient formulation, 1 part by weight of active ingredient is dissolved with the specified parts by weight of solvent and made up to the desired concentration with water containing an emulsifier concentration of 1000 ppm. To produce further test concentrations, the formulation is diluted with emulsifier-containing water. Leaf discs of maize (Zea mays) are sprayed with an active ingredient formulation of the desired concentration and, after drying, populated with caterpillars of the armyworm (Spodoptera frugiperda). After 7 days, the efficacy in % is determined. 100% means that all the caterpillars have been killed; 0% means that no caterpillar has been killed.
# Myzus persicae [2] = experiment: Myzus persicae oral test; details: 120 h, application rate 4 ppm, after 5 days, read-out: efficacy
# Procedure: Myzus persicae—Oral Test Solvent: 100 parts by weight of acetone To produce a suitable active ingredient formulation, 1 part by weight of active ingredient is dissolved with the stated parts by weight of solvent and made up to the desired concentration with water. 50 μl of the active ingredient formulation are transferred into microtitre plates and made up to a final volume of 200 μl with 150 μl of IPL41 insect medium (33%+15% sugar). Subsequently, the plates are sealed with parafilm, which a mixed population of green peach aphids (Myzus persicae) within a second microtitre plate is able to puncture and imbibe the solution. After 5 days, the efficacy in % is determined. 100% means that all the aphids have been killed; 0% means that no aphids have been killed.
# Nezara viridula = Nezara viridula spray test; details: 96 h, NEZAVI, 500 g of ai/ha, 4 dat, read-out: % efficacy
# Procedure: Nezara viridula—Spray Test [table] To produce a suitable active ingredient formulation, 1 part by weight of active ingredient is dissolved with the specified parts by weight of solvent and made up to the desired concentration with water containing an emulsifier concentration of 1000 ppm. To produce further test concentrations, the formulation is diluted with emulsifier-containing water. If the addition of ammonium salts or/and penetrants is required, these are each added in a concentration of 1000 ppm to the formulation solution. Barley plants (Hordeum vulgare) infected with larvae of the Southern green shield bug (Nezara viridula) are sprayed with an active ingredient formulation of the desired concentration. After the desired period of time, the efficacy in % is determined. 100% means that all of the shield bugs have been killed; 0% means that none of the shield bugs have been killed.
# Phaedon cochleariae [3] = experiment: Phaedon cochleariae spray test, Chinese cabbage leaf discs; details: foliar, 168 h, application rate 100 g/ha, after 7 days, larvae, read-out: efficacy
# Procedure: Phaedon cochleariae—Spray Test
# (§1) To produce a suitable active ingredient formulation, 1 part by weight of active ingredient is dissolved with the specified parts by weight of solvent and made up to the desired concentration with water containing an emulsifier concentration of 1000 ppm. To produce further test concentrations, the formulation is diluted with emulsifier-containing water.
# After 7 days, the efficacy in % is determined. 100% means that all the beetle larvae have been killed; 0% means that no beetle larvae have been killed.
# Spodoptera frugiperda [4] = experiment: Spodoptera frugiperda spray test (SPODFR S), cotton leaves; details: 168 h, 7 dat, read-out: % efficacy
# Procedure: Spodoptera frugiperda—Spray Test (SPODFR S) Solvent: 14 parts by weight of dimethylformamide Emulsifier: alkylaryl polyglycol ether To produce a suitable active ingredient formulation, 1 part by weight of active ingredient is dissolved with the specified parts by weight of solvent and made up to the desired concentration with water containing an emulsifier concentration of 1000 ppm. To produce further test concentrations, the formulation is diluted with emulsifier-containing water. If the addition of ammonium salts or/and penetrants is required, these are each added in a concentration of 1000 ppm to the formulation solution. Cotton leaves (Gossypium hirsutum) are sprayed with an active ingredient formulation of the desired concentration and populated with caterpillars of the armyworm (Spodoptera frugiperda). After the desired time, the kill in % is determined. 100% means that all caterpillars have been killed; 0% means that none of the caterpillars have been killed.
# Ctenocephalides felis [5] = experiment: Ctenocephalides felis oral test; details: application rate 100 ppm, after 2 days
# Procedure: Ctenocephalides felis—Oral Test Solvent: dimethyl sulfoxide To produce a suitable active ingredient formulation, 10 mg of active ingredient are mixed with 0.5 ml of dimethyl sulfoxide. Dilution with citrated cattle blood gives the desired concentration. About 20 unfed adult cat fleas (Ctenocephalides felis) are placed into a chamber which is closed at the top and bottom with gauze. A metal cylinder whose bottom end is closed with parafilm is placed onto the chamber. The cylinder contains the blood/active ingredient formulation, which can be imbibed by the fleas through the parafilm membrane. After 2 days, the kill in % is determined. 100% means that all of the fleas have been killed; 0% means that none of the fleas have been killed.
# Lucilia cuprina = Lucilia cuprina test; details: after 2 days, L1 larvae
# Procedure: Lucilia cuprina Test Solvent: dimethyl sulfoxide To produce a suitable active ingredient formulation, 10 mg of active ingredient are mixed with 0.5 ml of dimethyl sulfoxide, and the concentrate is diluted with water to the desired concentration. About 20 L1 larvae of the Australian sheep blowfly (Lucilia cuprina) are transferred into a test vessel containing minced horsemeat and the active ingredient formulation of the desired concentration. After 2 days, the kill in % is determined. 100% means that all the larvae have been killed; 0% means that no larvae have been killed.
# Myzus persicae [6] = experiment: Myzus persicae spray test (MYZUPE), Chinese cabbage leaf discs; details: foliar, 120 h, MYZUPE, 5 dat, read-out: % efficacy
# Procedure: Myzus persicae—Spray Test [table] To produce a suitable active ingredient formulation, 1 part by weight of active ingredient is dissolved with the specified parts by weight of solvent and made up to the desired concentration with water containing an emulsifier concentration of 1000 ppm. To produce further test concentrations, the formulation is diluted with emulsifier-containing water. Discs of Chinese cabbage leaves (Brassica pekinensis) infested by all stages of the green peach aphid (Myzus persicae) are sprayed with an active ingredient formulation of the desired concentration. After 5 days, the efficacy in % is determined. 100% means that all the aphids have been killed; 0% means that no aphids have been killed. Myzus persicae—Spray Test (MYZUPE) [table] To produce a suitable active ingredient formulation, 1 part by weight of active ingredient is dissolved with the specified parts by weight of solvent and made up to the desired concentration with water containing an emulsifier concentration of 1000 ppm. To produce further test concentrations, the formulation is diluted with emulsifier-containing water. Discs of Chinese cabbage leaves (Brassica pekinensis) infested by all stages of the green peach aphid (Myzus persicae) are sprayed with an active ingredient formulation of the desired concentration. After the desired period of time, the efficacy in % is determined. 100% means that all the aphids have been killed; 0% means that no aphids have been killed.
# Phaedon cochleariae [7] = experiment: Phaedon cochleariae spray test (PHAECO), cabbage leaves; details: 168 h, 7 dat, read-out: % efficacy
# Procedure: Phaedon cochleariae—Spray Test (PHAECO)
# Solvent: 14 parts by weight of dimethylformamide
# Emulsifier: alkylaryl polyglycol ether
# as §1, with “water. If the addition of ammonium salts or/and penetrants is required, these are each added in a concentration of 1000 ppm to the formulation solution.” for “water.”
# Cabbage leaves (Brassica oleracea) are sprayed with an active ingredient formulation of the desired concentration and populated with larvae of the mustard beetle (Phaedon cochleariae).
# After the desired time, the kill in % is determined. 100% means that all the beetle larvae have been killed; 0% means that no beetle larvae have been killed.
# Nilaparvata lugens = Nilaparvata lugens spray test (NILALU); details: 96 h, 4 dat, read-out: % efficacy
# Procedure: Nilaparvata lugens—Spray Test (NILALU)
# as §1, with “water. If the addition of ammonium salts or/and penetrants is required, these are each added in a concentration of 1000 ppm to the formulation solution.” for “water.”
# Rice plants (Oryza sativa) are sprayed with an active ingredient formulation of the desired concentration and then populated with larvae of the brown planthopper (Nilaparvata lugens).
# […], the efficacy in % is determined. 100% means that all of the planthoppers have been killed; 0% means that none of the planthoppers have been killed.
# Spodoptera frugiperda [8] = experiment: Spodoptera frugiperda drench test (SPODFR D); details: soil, 336 h, 14 dat, read-out: % efficacy
# Procedure: Spodoptera frugiperda—Drench Test (SPODFR D) [table] To produce a suitable active ingredient formulation, 1 part by weight of active ingredient is mixed with the specified amounts of solvent and emulsifier, and the concentrate is diluted with water to the desired concentration, it being necessary to take into account the volume of soil which is drenched. It should be ensured that a concentration of 40 ppm of emulsifier in the soil is not exceeded. To produce further test concentrations, water is used for dilution. Maize plants (Zea mays) in pots of soil are watered with an active ingredient formulation of the desired concentration and infected with caterpillars of the armyworm (Spodoptera frugiperda). After the desired time, the kill in % is determined. 100% means that all caterpillars have been killed; 0% means that none of the caterpillars have been killed.
# Ctenocephalides felis [9] = experiment: Ctenocephalides felis in vitro contact test with adult cat fleas; details: application rate 5 μg/cm^2 (=500 g/ha), after 48 h
# Procedure: Ctenocephalides felis—In Vitro Contact Tests with Adult Cat Fleas For the coating of the test tubes, 9 mg of active ingredient are first dissolved in 1 ml of acetone p.a. and then diluted to the desired concentration with acetone p.a. 250 μl of the solution are distributed homogeneously on the inner walls and the base of a 25 ml glass tube by turning and rocking on an orbital shaker (rocking rotation at 30 rpm for 2 h). With 900 ppm of active ingredient solution and internal surface area 44.7 cm^2, given homogeneous distribution, an area-based dose of 5 μg/cm^2 is achieved. After the solvent has evaporated off, the tubes are populated with 5-10 adult cat fleas (Ctenocephalides felis), sealed with a perforated plastic lid and incubated in a horizontal position at room temperature and ambient humidity. After 48 h, efficacy is determined. To this end, the tubes are stood upright and the fleas are knocked to the base of the tube. Fleas which remain motionless at the base or move in an uncoordinated manner are considered to be dead or moribund. […] 100% efficacy means that all the fleas were dead or moribund. 0% efficacy means that no fleas were harmed.
# Musca domestica = Musca domestica test; details: application rate 100 ppm, after 2 days, adult houseflies
# Procedure: Musca domestica Test Solvent: dimethyl sulfoxide To produce a suitable active ingredient formulation, 10 mg of active ingredient are mixed with 0.5 ml of dimethyl sulfoxide, and the concentrate is diluted with water to the desired concentration. Vessels containing a sponge treated with sugar solution and the desired concentration of active ingredient formulation are populated with 10 adult houseflies (Musca domestica). After 2 days, the kill in % is determined. 100% means that all the flies were killed; 0% means that no flies were killed.
# Myzus persicae [10] = experiment: Myzus persicae spray test, bell pepper plants; details: application rate 20 ppm, after 6 days
# Procedure: Myzus persicae—Spray Test Solvent: 14 parts by weight of dimethylformamide Emulsifier: alkylaryl polyglycol ether To produce a suitable active ingredient formulation, 1 part by weight of active ingredient is dissolved with the specified parts by weight of solvent and made up to the desired concentration with water containing an emulsifier concentration of 1000 ppm. To produce further test concentrations, the formulation is diluted with emulsifier-containing water. If the addition of ammonium salts or/and penetrants is required, these are each added in a concentration of 1000 ppm to the formulation solution. Bell pepper plants (Capsicum annuum) severely infested with the green peach aphid (Myzus persicae) are treated by spraying with the active ingredient formulation in the desired concentration. After 6 days, the kill in % is determined. 100% means that all of the aphids have been killed; 0% means that none of the aphids have been killed.
smiles,measurement,setting,value
CCc1nc(C(F)(F)F)cc2nc(-c3nc(-n4ncn(-c5ccc(Cl)cc5)c4=O)ccc3S(=O)(=O)CC)n(C)c12 [Example I-016],efficacy,Spodoptera frugiperda [1],100%
same,pest or weed control at 4 ppm,Myzus persicae [2],100%
same,Emax at 500 g/ha,Nezara viridula,50%
same,pest or weed control at 100 g/ha,Phaedon cochleariae [3],100%
same,Emax at 4 ppm,Spodoptera frugiperda [4],100%
"CCS(=O)(=O)c1ccc(-n2ncn(-c3ccc(Cl)cc3)c2=O)nc1-c1nc2cc(C(F)(F)F)nc(C#N)c2n1C [Example I-011, 2-{6-[4-(4-chlorophenyl)-5-oxo-4,5-dihydro-1H-1,2,4-triazol-1-yl]-3-(ethylsulfonyl)pyridin-2-yl}-3-methyl-6-(trifluoromethyl)-3H-imidazo[4,5-c]pyridine-4-carbonitrile]",efficacy (kill),Ctenocephalides felis [5],100%
same,pest or weed control at 4 ppm,Myzus persicae [2],100%
same,Emax at 500 g/ha,Nezara viridula,90%
same,pest or weed control at 100 g/ha,Phaedon cochleariae [3],100%
same,efficacy (kill),Lucilia cuprina; application rate 20 ppm,100%
same,efficacy (kill),Lucilia cuprina; application rate 100 ppm,100%
"CCS(=O)(=O)c1ccc(-n2ncn(-c3ccc(Cl)cc3)c2=O)nc1-c1nc2cc(C(F)(F)F)ncc2n1C [Prior art WO 2017/055185 (Ex. I-19), reference compound]",Emax at 20 g/ha,Myzus persicae [6]; 20 g of ai/ha,0%
same,Emax at 100 g/ha,Myzus persicae [6]; 100 g of ai/ha,0%
same,Emax at 0.8 ppm,Phaedon cochleariae [7],70%
same,Emax at 100 g/ha,Nilaparvata lugens; 100 g of ai/ha,0%
same,Emax at 500 g/ha,Nilaparvata lugens; 500 g of ai/ha,0%
same,Emax at 500 g/ha,Nezara viridula,0%
same,Emax at 20 ppm,Spodoptera frugiperda [8],0%
same,Emax at 4 ppm,Spodoptera frugiperda [4],35%
CCS(=O)(=O)c1ccc(-n2ccnn2)nc1-c1nc2cc(C(F)(F)F)nc(C)c2n1C [Example I-013],Emax at 4 g/ha,Myzus persicae [6]; 4 g of ai/ha,70%
same,efficacy,Ctenocephalides felis [9],100%
same,efficacy (kill),Ctenocephalides felis [5],100%
same,efficacy (kill),Musca domestica,100%
same,pest or weed control at 4 ppm,Myzus persicae [2],100%
same,pest or weed control at 100 g/ha,Phaedon cochleariae [3],83%
same,efficacy (kill),Lucilia cuprina; application rate 20 ppm,80%
same,efficacy (kill),Lucilia cuprina; application rate 100 ppm,100%
same,efficacy (kill),Myzus persicae [10],100%

# Reference: patent publication US20200236940A1, “2-(HET)ARYL-SUBSTITUTED FUSED HETEROCYCLE DERIVATIVES AS PESTICIDES” (Bayer Aktiengesellschaft, priority 2017, published 2020)
